pEC50: −log10 of the molar value. Where a SMILES comes first, the peptide text is derived from it. Bridges are numbered along the chain shown (N, C = ends).
Target: T1, rat NPR-A (Rattus norvegicus, UniProt P18910)
T1 construct: endogenous in cells; host or cells: rat PC12 cells
T1 sequence (P18910 29-1057): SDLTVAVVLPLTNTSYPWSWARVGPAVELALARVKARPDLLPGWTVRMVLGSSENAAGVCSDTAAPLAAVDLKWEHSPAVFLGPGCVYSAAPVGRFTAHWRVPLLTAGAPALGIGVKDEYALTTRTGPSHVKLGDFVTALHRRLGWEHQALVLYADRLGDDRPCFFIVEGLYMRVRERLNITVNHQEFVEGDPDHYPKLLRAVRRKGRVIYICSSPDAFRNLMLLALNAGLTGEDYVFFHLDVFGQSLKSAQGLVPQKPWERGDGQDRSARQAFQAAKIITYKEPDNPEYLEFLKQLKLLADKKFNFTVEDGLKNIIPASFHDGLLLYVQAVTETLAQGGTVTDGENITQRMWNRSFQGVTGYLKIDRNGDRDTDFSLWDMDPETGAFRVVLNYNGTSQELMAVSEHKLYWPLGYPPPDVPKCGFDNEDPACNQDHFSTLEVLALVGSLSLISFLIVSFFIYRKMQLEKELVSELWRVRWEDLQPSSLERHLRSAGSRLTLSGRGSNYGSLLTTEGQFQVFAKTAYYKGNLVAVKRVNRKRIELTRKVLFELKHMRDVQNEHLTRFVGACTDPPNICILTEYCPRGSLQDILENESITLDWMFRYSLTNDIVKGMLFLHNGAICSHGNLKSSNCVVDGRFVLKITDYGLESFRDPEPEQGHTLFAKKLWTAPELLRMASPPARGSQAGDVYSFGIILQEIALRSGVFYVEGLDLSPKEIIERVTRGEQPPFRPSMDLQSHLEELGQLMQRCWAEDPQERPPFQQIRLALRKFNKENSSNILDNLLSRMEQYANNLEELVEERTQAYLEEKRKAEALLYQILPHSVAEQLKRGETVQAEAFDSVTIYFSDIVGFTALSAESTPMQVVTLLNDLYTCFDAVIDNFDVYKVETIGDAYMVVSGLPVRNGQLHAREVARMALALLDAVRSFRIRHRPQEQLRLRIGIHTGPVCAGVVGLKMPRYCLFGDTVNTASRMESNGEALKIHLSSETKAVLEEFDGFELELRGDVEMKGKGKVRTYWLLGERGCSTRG
Experiment: cGMP ALPHAscreen, cGMP production in PC12 cells
Format: cell-based
Method: NP activity can be determined by the effectiveness of the peptide to elicit cGMP production through NPR-A. The cGMP ALPHAscreen evaluates the ability of peptides to stimulate cGMP production in cells through a non-radioactive, homogenous, proximity assay which encompasses […]. […] In order to evaluate the potency of TNPa-e at rNPR-A, TNPa-e were evaluated using the cGMP ALPHAscreen in rat PC12 cells.
Cells were cultured at 5% CO2 and 37 °C. HEK 293 cells were cultured in high glucose DMEM (Gibco, Carlsbad, CA, USA) supplemented with 10% FBS, and 1% penicillin/streptomycin. HEK 293 cells were seeded in media lacking penicillin/streptomycin 24 to 48 h pre-transfection. PC12 cells were cultured in high glucose DMEM (Gibco) supplemented with 10% FBS and 1% penicillin/streptomycin.
The cGMP ALPHAscreen was performed using the ALPHAscreen Protein A detection kit and the biotinylated cGMP supplement (Perkin Elmer, Waltham, MA, USA) with rabbit anti-cGMP polyclonal antibody (Biovision, Mountain View, CA, USA). Cells were detached from the flask and the resulting pellet was resuspended in stimulation buffer (HBSS supplemented with 0.1% w/v BSA and 1 mM IBMX at 37 °C). Cells were added to a white 384-well Optiplate (Perkin Elmer, Waltham, USA) to 30,000 cells per well for HEK 293 cells and 10,000 cells per well for PC12 cells. Cells were incubated with different concentrations of test peptides (concentration range of 1 × 10^−5 to 1 × 10^−11 M in stimulation buffer) at 37 °C for 30 min. Cells were lysed with lysis buffer (1 M HEPES, 0.3% Tween-20, 1% BSA in H2O, pH 7.4). Then 5 μL acceptor-bead mix was added to each well under subdued lighting conditions, followed by 5 μL of donor-bead mix. Plates were incubated for ~12 h, slowly shaking at room temperature. After incubation, the ALPHAscreen signal was measured using an EnVision plate reader (Perkin Elmer). The standard curve consisted of cGMP in a concentration range of 1 × 10^−6 to 1 × 10^−12 M. All data points were acquired in triplicate and were analyzed using GraphPad Prism 5.0 software (GraphPad Software, Inc., San Diego, CA, USA).

With `CC[C@H](C)[C@H](NC(=O)[C@H](CCCCN)NC(=O)[C@H](CO)NC(=O)[C@H](CC(=O)O)NC(=O)[C@@H](N)CO)C(=O)NCC(=O)N[C@@H](CC(N)=O)C(=O)NCC(=O)N[C@H]1CSSC[C@@H](C(=O)N[C@@H](CC(N)=O)C(=O)N[C@@H](CCCNC(=N)N)C(=O)N[C@H](C(=O)N[C@@H](CCSC)C(=O)N[C@@H](CCC(N)=O)C(=O)N[C@@H](CC(N)=O)C(=O)N2CCC[C@H]2C(=O)N2CCC[C@H]2C(=O)N[C@@H](CCCCN)C(=O)N[C@@H](CCCCN)C(=O)N[C@@H](Cc2ccccc2)C(=O)N[C@@H](CO)C(=O)NCC(=O)N[C@@H](CCC(=O)O)C(=O)O)[C@@H](C)CC)NC(=O)CNC(=O)[C@H](CC(C)C)NC(=O)CNC(=O)[C@H](CO)NC(=O)[C@H](C(C)C)NC(=O)[C@H](CO)NC(=O)CNC(=O)[C@H]([C@@H](C)CC)NC(=O)[C@H](CCCNC(=N)N)NC(=O)[C@H](CC(=O)O)NC(=O)[C@H](CC(C)C)NC(=O)[C@@H]2CCCN2C(=O)[C@H](Cc2ccccc2)NC(=O)CNC(=O)[C@H](Cc2ccccc2)NC1=O` [TNPc] (H-SDSKIGNGCFGFPLDRIGSVSGLGCNRIMQNPPKKFSGE-OH; disulfide 9-25) as the molecule, how does the pEC50 (PC12 cells, 30 min at 37 °C, cGMP ALPHAscreen, three to five separate experiments in triplicate, read-out: rNPR-A EC50 (95% CI), potency to stimulate cGMP production) read?
Its pEC50 is 7.00.

And the “selectivity / difference in potency for rNPR-A over hNPR-A” value (rNPR-A (PC12) versus hNPR-A (HEK 293) cGMP potency)?
Its value is 100 fold.

Source: PMC10095932 (Molecules, 2023)
